Measurements reported in ChEMBL document CHEMBL1201862, “PubChem BioAssay data set” (2004).
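1) Cells in 96-well plates. 2) Compound, 48 h, 5 concentrations. 3) Linear interpolation between surrounding doses. 4) Unreached endpoint = highest concentration. The concentration for 50% growth inhibition is given as GI50.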 Active and inactive are the calls of the source. Cut-off read from the data, not from the text of the source: active = GI50 up to about 1.1 µM and inactive = higher.

Legend:
Test in all cases: NCI anticancer screen, dose series, 48 h
[1] = tested on: HT-29
[2] = tested on: CAKI-1
[3] = tested on: SF-295
[4] = tested on: UACC-257
[5] = tested on: TK-10
[6] = tested on: HCT-116
[7] = tested on: U-251
[8] = tested on: LOX IMVI
[9] = tested on: OVCAR-3
[10] = tested on: HL-60
[11] = tested on: SK-MEL-5
[12] = tested on: NCI-H460
[13] = tested on: MOLT-4
[14] = tested on: 786-0
[15] = tested on: OVCAR-4
[16] = tested on: Malme-3M
[17] = tested on: OVCAR-5
[18] = tested on: KM12
[19] = tested on: DU-145

| Compound | GI50 [1] | GI50 [2] | GI50 [3] | GI50 [4] | GI50 [5] | GI50 [6] | GI50 [7] | GI50 [8] | GI50 [9] | GI50 [10] | GI50 [11] | GI50 [12] | GI50 [13] | GI50 [14] | GI50 [15] | GI50 [16] | GI50 [17] | GI50 [18] | GI50 [19] |
| --- | --- | --- | --- | --- | --- | --- | --- | --- | --- | --- | --- | --- | --- | --- | --- | --- | --- | --- | --- |
| CC1C=CC(=O)C(n2cc(F)c(=O)[nH]c2=O)O1 (stereo unspecified) | 18.2 µM (inactive) | 11.6 µM (inactive) | > 10 µM (inactive) | 16.4 µM (inactive) | 18.7 µM (inactive) | 15.7 µM (inactive) | 15.7 µM (inactive) | 15.8 µM (inactive) | 17.3 µM (inactive) | 20.1 µM (inactive) | 17.9 µM (inactive) | 23.3 µM (inactive) | 16.5 µM (inactive) | 16 µM (inactive) | 18.5 µM (inactive) | 14.2 µM (inactive) | – | – | – |
| COc1ccc(NC(=O)CC(=O)n2nc(C)c(/N=N/c3ccccc3C(=O)O)c2C)cc1 | > 100 µM (inactive) | > 100 µM (inactive) | > 100 µM (inactive) | > 100 µM (inactive) | > 100 µM (inactive) | > 100 µM (inactive) | > 100 µM (inactive) | > 100 µM (inactive) | > 100 µM (inactive) | > 100 µM (inactive) | > 100 µM (inactive) | > 100 µM (inactive) | > 100 µM (inactive) | 77.3 µM (inactive) | > 100 µM (inactive) | > 100 µM (inactive) | > 100 µM (inactive) | > 100 µM (inactive) | – |
| Cc1ccc2c(c1)C1(OC(=O)c3ccccc31)c1ccc(F)cc1O2 (stereo unspecified) | 39.3 µM (inactive) | 30 µM (inactive) | – | 31 µM (inactive) | > 100 µM (inactive) | 32.7 µM (inactive) | – | 39.6 µM (inactive) | 55.2 µM (inactive) | 21.7 µM (inactive) | 32.7 µM (inactive) | – | 20.3 µM (inactive) | 77.6 µM (inactive) | 49.8 µM (inactive) | 67.8 µM (inactive) | > 100 µM (inactive) | 51.3 µM (inactive) | – |
| CC(C)(C)C1=NO[C@H]2[C@@H](NC(=O)c3ccccc3)CC[C@@H]12 | > 100 µM (inactive) | > 100 µM (inactive) | > 100 µM (inactive) | > 100 µM (inactive) | > 100 µM (inactive) | > 100 µM (inactive) | > 100 µM (inactive) | > 100 µM (inactive) | > 100 µM (inactive) | > 100 µM (inactive) | > 100 µM (inactive) | > 100 µM (inactive) | > 100 µM (inactive) | > 100 µM (inactive) | > 100 µM (inactive) | > 100 µM (inactive) | > 100 µM (inactive) | > 100 µM (inactive) | – |
| CC(=O)OC(C)(C)C[N+](=O)[O-] | > 100 µM (inactive) | > 100 µM (inactive) | > 100 µM (inactive) | > 100 µM (inactive) | > 100 µM (inactive) | > 100 µM (inactive) | > 100 µM (inactive) | > 100 µM (inactive) | > 100 µM (inactive) | 26 µM (inactive) | – | > 100 µM (inactive) | > 100 µM (inactive) | > 100 µM (inactive) | 20 µM (inactive) | > 100 µM (inactive) | > 100 µM (inactive) | > 100 µM (inactive) | – |
| Cn1cnc([N+](=O)[O-])c1Sc1nc2cc([N+](=O)[O-])ccc2[nH]1 | 36.4 µM (inactive) | 12.6 µM (inactive) | > 100 µM (inactive) | 14.3 µM (inactive) | 19.5 µM (inactive) | 23.4 µM (inactive) | 27 µM (inactive) | 24.7 µM (inactive) | 37.9 µM (inactive) | 14 µM (inactive) | 15.5 µM (inactive) | 36.1 µM (inactive) | 14.8 µM (inactive) | 42.4 µM (inactive) | 46.6 µM (inactive) | > 10 µM (inactive) | 48.4 µM (inactive) | 34.9 µM (inactive) | – |
| COc1ccccc1-c1cc(O)c2c(C)cc(C)nc2n1 | 56.8 µM (inactive) | 40.3 µM (inactive) | – | 50.5 µM (inactive) | > 100 µM (inactive) | – | – | 75.2 µM (inactive) | – | – | – | – | 30 µM (inactive) | – | 56.1 µM (inactive) | 48 µM (inactive) | > 100 µM (inactive) | 29.1 µM (inactive) | > 100 µM (inactive) |
| [O-][n+]1ccccc1S [PYRITHIONE ZINC] | 0.176 µM (active) | 5.13 µM (inactive) | 4.46 µM (inactive) | 2.09 µM (inactive) | 10.1 µM (inactive) | 0.5 µM (active) | 1.34 µM (inactive) | 1.4 µM (inactive) | 0.304 µM (active) | 0.232 µM (active) | 1.22 µM (inactive) | 1.63 µM (inactive) | 0.0973 µM (active) | 0.343 µM (active) | 0.542 µM (active) | 2.45 µM (inactive) | 5.55 µM (inactive) | 1.38 µM (inactive) | – |
